According to patent US10098887B2, “Antiviral compounds and methods of use thereof” (Trana Discovery, Inc., priority 2010, dated 2018):

Each compound was assayed on interaction between Human tRNA^Lys3 and HIV-1 genomic RNA (assay: Biochemical HIV-1 tRNA Inhibition Assay (AlphaScreen)). Settings: active compounds from high throughput screening, prioritized on IC50.
Format: binding
Set-up: key: +: showing some activity; ++: intermediate activity; +++: the highest activity
Source text: The methods for detecting binding of the target RNA to the tRNA or the inhibition of such binding may be performed using any method for such detection. For example, the AlphaScreen® assay (Packard Instrument Company, Meriden, Conn.). AlphaScreen® technology is an “Amplified Luminescent Proximity Homogeneous Assay” method utilizing latex microbeads (250 nm diameter) containing a photosensitizer (donor beads), or chemiluminescent groups and fluorescent acceptor molecules (acceptor beads). Upon illumination with laser light at 680 nm, the photosensitizer in the donor bead converts ambient oxygen to singlet-state oxygen. The excited singlet-state oxygen molecules diffuse approximately 250 nm (one bead diameter) before rapidly decaying. If the acceptor bead is in close proximity to the donor bead (i.e., by virtue of the interaction of the target RNA and tRNA fragment), the singlet-state oxygen molecules reacts with chemiluminescent groups in the acceptor beads, which immediately transfer energy to fluorescent acceptors in the same bead. These fluorescent acceptors shift the emission wavelength to 520-620 nm, resulting in a detectable signal. Antagonists of the interaction of the target RNA with the tRNA fragment will thus inhibit the shift in emission wavelength, whereas agonists of this interaction would enhance it.
In the AlphaScreen configuration (FIG. 3) the assay is done in solution using the same RNA as the immobilization assay. The donor and acceptor beads are bound to their respective RNA's. During the screening the RNAs and test drugs/small molecules are incubated together and formation of the complex is measured using the AlphaScreen detection conditions. Utilization of the AlphaScreen assay may allow for the assay to be run at a lower RNA concentration at room temperature, and increase the stability of the complex.
HIV-1 has evolved to use Human tRNA^Lys3 as a primer for initiation of reverse transcription. Therefore, the interaction between tRNA^Lys3 and viral genomic RNA represents a potential novel target for HIV-1 drug development. Based on this hypothesis, a biochemical assay to identify inhibitors of the interaction between Human tRNA^Lys3 and HIV-1 genomic RNA was developed by TRANA Discovery and transferred to Southern Research Institute for high-throughput screening. This assay was developed as a homogeneous amplified luminescent proximity assay using AlphaScreen™ reagents from PerkinElmer. Based on this assay technology, the AlphaScreen™ luminescent signal serves as a mechanism for detecting the interaction between RNA molecules that represent Human tRNA^Lys3 and HIV-1 genomic RNA. The inhibition of the interaction between these RNA molecules by test compounds is detected as a decrease in the AlphaScreen™ luminescent signal.
A preliminary 15,000 compound screen (NINDS Diversity Set) was previously completed and the results were reported through NIAID contract N01-AI-70042. For the results described herein, a 101,000 compound library that was purchased from ChemBridge for the NIAID TAACF program was used. This library was carefully selected for diversity and minimal similarity to the 100,000 compound NINDS library, which is also planned to be screened using the TRANA Discovery Biochemical HIV-1 tRNA Inhibition Assay. The compounds were screened at a concentration of 12.5 μg/mL (first 3 batches) or 25 μg/mL (fourth and final batch).
With `O=[N+]([O-])c1ccc(Nc2ccccc2O)c2nonc12` [2-[(7-nitro-2,1,3-benzoxadiazol-4-yl)amino]phenol] the Activity was “++”. With `Br.CCN(CC)c1ccc(Nc2nc(-c3ccccn3)cs2)cc1` [N,N-diethyl-N′-[4-(2-pyridinyl)-1,3-thiazol-2-yl]-1,4-benzenediamine hydrobromide] the Activity was “+”. With `COc1ccccc1N1CCN(CC=Cc2ccc(N(C)C)cc2)CC1` [(4-{3-[4-(2-methoxyphenyl)-1-piperazinyl]-1-propen-1-yl}phenyl)dimethylamine] the Activity was “+”. For `Cc1[nH]c(=O)[nH]c1C(=O)CCCCC(=O)O` [6-(5-methyl-2-oxo-2,3-dihydro-1H-imidazol-4-yl)-6-oxohexanoic acid], the Activity was “+++”. For `O=[N+]([O-])c1ccc(Nc2ccc(O)cc2)c2nonc12` [4-[(7-nitro-2,1,3-benzoxadiazol-4-yl)amino]phenol], the Activity was “++”. In the case of `CCCCOc1cccc(C(=O)NC(=S)Nc2ccc(N(C)C)cc2)c1` [3-butoxy-N-({[4-(dimethylamino)phenyl]amino}carbonothioyl)benzamide], the Activity is reported as “+”. `O=C1C(Nc2cc(F)cc(F)c2)=C(N2CCOCC2)C(=O)c2ccccc21` [2-[(3,5-difluorophenyl)amino]-3-(4-morpholinyl)naphthoquinone] was tested, and the Activity was “++”. With `CC(=O)c1ccc(NC2=C(N3CCCC3)C(=O)c3ccccc3C2=O)cc1` [2-[(4-acetylphenyl)amino]-3-(1-pyrrolidinyl)naphthoquinone] the Activity was “++”. For `COc1ccc(N2CCN(c3cc(Cl)ccc3[N+](=O)[O-])CC2)cc1` [1-(5-chloro-2-nitrophenyl)-4-(4-methoxyphenyl)piperazine], the Activity was “+”. In the case of `Nc1c(Cl)cc(N2CCCC2)c2c1C(=O)c1ccccc1C2=O` [1-amino-2-chloro-4-(1-pyrrolidinyl)anthra-9,10-quinone], the Activity is reported as “+”. With `Cc1ccccc1NC1=C(N2CCOCC2)C(=O)c2ccccc2C1=O` [2-[(2-methylphenyl)amino]-3-(4-morpholinyl)naphthoquinone] the Activity was “++”. With `Cc1ccccc1NC1=C(N)C(=O)c2ccccc2C1=O` [2-amino-3-[(2-methylphenyl)amino]naphthoquinone] the Activity was “+”. `O=C1NC(=S)N(c2cccc(Cl)c2)C(=O)C1=Cc1ccco1` [1-(3-chlorophenyl)-5-(2-furylmethylene)-2-thioxodihydro-4,6(1H,5H)-pyrimidinedione] was tested, and the Activity was “+”. `CCOc1ccc(Nc2ccc([N+](=O)[O-])c3nonc23)cc1` [N-(4-ethoxyphenyl)-7-nitro-2,1,3-benzoxadiazol-4-amine] was tested, and the Activity was “+”. In the case of `COc1cccc(NC2=C(N3CCCCC3)C(=O)c3ccccc3C2=O)c1` [2-[(3-methoxyphenyl)amino]-3-(1-piperidinyl)naphthoquinone], the Activity is reported as “++”. In the case of `CCOC(=O)C=C1NC(c2ccccc2)=C(c2ccccc2)C1=O` [ethyl (3-oxo-4,5-diphenyl-1,3-dihydro-2H-pyrrol-2-ylidene)acetate], the Activity is reported as “++”. For `CC(C)NC1=C(Cl)C(=O)c2ccccc2C1=O` [2-chloro-3-(isopropylamino)naphthoquinone], the Activity was “+”. In the case of `CCC(=NNc1ccccc1[N+](=O)[O-])c1ccc(O)cc1` [1-(4-hydroxyphenyl)-1-propanone (2-nitrophenyl)hydrazone], the Activity is reported as “++”. With `Cc1ccc(C=NNc2ccccc2[N+](=O)[O-])o1` [5-methyl-2-furaldehyde (2-nitrophenyl)hydrazone] the Activity was “+”. `CCOc1ccc2c(c1)-c1c(ssc1=S)C(C)(C)N2C(C)=O` [5-acetyl-8-ethoxy-4,4-dimethyl-4,5-dihydro-1H-[1,2]dithiolo[3,4-c]quinoline-1-thione] was tested, and the Activity was “+”. In the case of `Cc1cccc(CNc2ccc3c(c2)OCO3)c1` [1,3-benzodioxol-5-yl(3-methylbenzyl)amine], the Activity is reported as “+”. `CN(C)C1=C(Cl)C(=O)c2ccccc2C1=O` [2-chloro-3-(dimethylamino)naphthoquinone] was tested, and the Activity was “++”. `CC(=NNc1ccccc1[N+](=O)[O-])c1ccco1` [1-(2-furyl)ethanone (2-nitrophenyl)hydrazone] was tested, and the Activity was “+”. `O=C1C(Nc2cccc(F)c2)=C(N2CCCC2)C(=O)c2ccccc21` [2-[(3-fluorophenyl)amino]-3-(1-pyrrolidinyl)naphthoquinone] was tested, and the Activity was “++”. For `O=C(NN1C(=O)C(=Cc2ccc(O)c(O)c2)SC1=S)c1ccccc1Br` [2-bromo-N-[5-(3,4-dihydroxybenzylidene)-4-oxo-2-thioxo-1,3-thiazolidin-3-yl]benzamide], the Activity was “+”. In the case of `CC(=O)N1c2ccc(C)cc2-c2c(ssc2=S)C1(C)C` [5-acetyl-4,4,8-trimethyl-4,5-dihydro-1H[1,2]dithiolo[3,4-c]quinoline-1-thione], the Activity is reported as “+”. For `Cc1nc(NC(=N)N)nc2c(C)cccc12` [N-(4,8-dimethyl-2-quinazolinyl)guanidine], the Activity was “+”. With `COc1ccc2c(C)nc(NC(=N)N)nc2c1` [N-(7-methoxy-4-methyl-2-quinazolinyl)guanidine] the Activity was “+”. For `C=CCN1C(=O)C(=Cc2cc(Cl)cc(Cl)c2O)SC1=S` [3-allyl-5-(3,5-dichloro-2-hydroxybenzylidene)-2-thioxo-1,3-thiazolidin-4-one], the Activity was “+”. With `Cc1cccc(NC2=C(N(C)C)C(=O)c3ccccc3C2=O)c1` [2-(dimethylamino)-3-[(3-methylphenyl)amino]naphthoquinone] the Activity was “++”. `CCOc1nc(NC(=N)N)nc2c(C)cccc12` [N-(4-ethoxy-8-methyl-2-quinazolinyl)guanidine] was tested, and the Activity was “++”. In the case of `O=C1NC(=S)N(c2ccc(Cl)cc2)C(=O)C1=Cc1ccco1` [1-(4-chlorophenyl)-5-(2-furylmethylene)-2-thioxodihydro-4,6(1H,5H)-pyrimidinedione], the Activity is reported as “+”. `CCOC(=O)c1cc(N)ccc1-c1c2ccc(=O)cc-2oc2cc(O)ccc12` [ethyl 5-amino-2-(6-hydroxy-3-oxo-3H-xanthen-9-yl)benzoate] was tested, and the Activity was “+++”. `Cn1cccc1C=C1C(=O)NC(=S)N(c2ccc(Cl)cc2)C1=O` [1-(4-chlorophenyl)-5-[(1-methyl-1H-pyrrol-2-yl)methylene]-2-thioxodihydro-4,6(1H,5H)-pyrimidinedione] was tested, and the Activity was “+”. In the case of `COc1cccc(NC2=C(N3CCCC3)C(=O)c3ccccc3C2=O)c1` [2-[(3-methoxyphenyl)amino]-3-(1-pyrrolidinyl)naphthoquinone], the Activity is reported as “++”. In the case of `CN(CCN(C)N=Cc1cccc([N+](=O)[O-])c1)N=Cc1cccc([N+](=O)[O-])c1` [3-nitrobenzaldehyde 1,2-ethanediyl(methylhydrazone)], the Activity is reported as “+”. In the case of `COC(=O)c1ccc(NC2=C(N3CCOCC3)C(=O)c3ccccc3C2=O)cc1` [methyl 4-{[3-(4-morpholinyl)-1,4-dioxo-1,4-dihydro-2-naphthalenyl]amino}benzoate], the Activity is reported as “++”. `O=C1C(=Cc2ccc(O)c(O)c2)SC(=S)N1c1cccc(F)c1` [5-(3,4-dihydroxybenzylidene)-3-(3-fluorophenyl)-2-thioxo-1,3-thiazolidin-4-one] was tested, and the Activity was “++”. `Cc1cccc(NC2=C(N3CCCC3)C(=O)c3ccccc3C2=O)c1` [2-[(3-methylphenyl)amino]-3-(1-pyrrolidinyl)naphthoquinone] was tested, and the Activity was “++”. For `Cc1ccc(Nc2cc(C)c(O)c(C)c2)cc1` [2,6-dimethyl-4-[(4-methylphenyl)amino]phenol], the Activity was “++”. For `COC(=O)c1ccc(N2CCCCC2)c2c1C(=O)c1ccccc1C2=O` [methyl 9,10-dioxo-4-(1-piperidinyl)-9,10-dihydro-1-anthracenecarboxylate], the Activity was “++”. With `Cc1ccc2c(C)nc(Nc3nc(C)cc(O)n3)nc2c1` [2-[(4,7-dimethyl-2-quinazolinyl)amino]-6-methyl-4-pyrimidinol] the Activity was “+”. `CCN(CC)CCN(CC)Cc1ccc(N(C)C)cc1` [N-[4-(dimethylamino)benzyl]-N,N′,N′-triethyl-1,2-ethanediamine] was tested, and the Activity was “+”. With `O=[N+]([O-])c1ccccc1NN=Cc1ccc(O)c(O)c1` [3,4-dihydroxybenzaldehyde (2-nitrophenyl)hydrazone] the Activity was “++”. With `O=C1C(Nc2cccc(O)c2)=C(N2CCCCC2)C(=O)c2ccccc21` [2-[(3-hydroxyphenyl)amino]-3-(1-piperidinyl)naphthoquinone] the Activity was “+”.
